Holding throughout (type): cell-based
Series [1] can be described thus: PHH natural infection assay, cytotoxicity (Cell Counting Kit-8). The following applies: human, HBV-infected primary human hepatocytes, CCK8, end of treatment. In short, it runs like this:
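HBV-infected at 200 GE/cell with 4% PEG8000 for 24 h, then sandwich-cultured 72 h in 1% DMSO and 0.25 mg/mL matrix gel. Compound added twice at 72-h intervals; supernatant HBsAg and HBeAg read by AlphaLISA, HBV DNA by quantitative fluorescence PCR kit. Cytotoxicity by CCK-8.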
In general terms: Tetrazolium dyes change colour on reduction, which living cells bring about.

For a further series, the system named is HBeAg. The series can be described thus: PHH HBV natural infection assay, HBeAg (alphalisa). A digest of the protocol: (§1)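 Primary human hepatocytes infected with HBV at 200 GE/cell plus 4% PEG8000 for 24 h, then sandwich-cultured 72 h. Compounds were added in two refreshes 72 h apart. HBsAg and HBeAg in supernatant measured by AlphaLISA.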
Background: Alpha assays give light when donor and acceptor beads are brought close together.

The test system of another series is HBsAg. The series can be described thus: PHH HBV natural infection assay, HBsAg (alphalisa). A digest of the protocol: as §1
The mark [2] stands for this setting: Hepatitis B virus, Hepatocyte, 72 h, read-out: HbeAg IC50, HBV-infected primary human hepatocytes, supernatant, compound medium refreshed two times with 72-hour interval.
Setting [3] is: Hepatitis B virus, Hepatocyte, 72 h, read-out: HBsAg IC50, HBV-infected primary human hepatocytes, supernatant, compound medium refreshed two times with 72-hour interval.
Where [4] appears, read: read-out: HbeAg IC50, HBV-infected primary human hepatocytes, supernatant, compound medium refreshed two times with 72-hour interval.
Setting [5] is: read-out: HBsAg IC50, HBV-infected primary human hepatocytes, supernatant, compound medium refreshed two times with 72-hour interval.

Read-outs that look alike come from different tables or passages of the source.

Broadly, the CC50 is the concentration giving 50% cytotoxicity. A word on the IC50: it is the midpoint of a concentration-inhibition curve. With `O=C(NC1CC2(C1)CC(c1nc3cc(Cl)ccc3o1)C2)c1ccc(S(=O)(=O)NC(=O)C2CS(=O)(=O)C2)o1` (stereo not drawn) [Example 83, N-[6-(5-chloro-1,3-benzoxazol-2-yl)spiro[3.3]heptan-2-yl]-5-[(1,1-dioxothietane-3-carbonyl)sulfamoyl]furan-2-carboxamide], in series [1], the CC50 at 144 h was above 10 µM. Moreover, the IC50 is 1.97 µM in the series on HBeAg (setting [2]) and 3.3 µM in the series on HBsAg (setting [3]).

Turning to `O=C(NC1CC2(C1)CC(c1nc3cc(Cl)cnc3o1)C2)c1ccc(S(=O)(=O)C2CC2)o1` (single isomer, unassigned) [Example 49-a, N-[6-(6-chlorooxazolo[5,4-b]pyridin-2-yl)spiro[3.3]heptan-2-yl]-5-cyclopropylsulfonyl-furan-2-carboxamide], in series [1], it took 81.1 µM to reach half-maximal cytotoxicity (CC50 at 144 h). For the same compound, the IC50 in the series on HBeAg (setting [4]) was determined as 4.25 µM; in the series on HBsAg (setting [5]), 4.17 µM.

The compound `O=C(NC1CC2(C1)CC(c1nc3cc(Cl)ccc3o1)C2)c1ccc(SC(F)(F)F)o1` (stereo not drawn) [Example 41, N-[6-(5-chloro-1,3-benzoxazol-2-yl)spiro[3.3]heptan-2-yl]-5-(trifluoromethylsulfanyl)furan-2-carboxamide] yielded a CC50 at 144 h in series [1] above 100 µM. For the same compound, the IC50 with HBeAg (setting [2]) worked out at 6.62 µM; in the series with HBsAg (setting [3]) it was 8.47 µM.

`O=C(NC1CC2(C1)CC(c1nc3cc(Cl)ccc3o1)C2)c1ccc(S2(=O)=NCCC2)o1` (stereo not drawn) [Example 61, N-[6-(5-chloro-1,3-benzoxazol-2-yl)spiro[3.3]heptan-2-yl]-5-(1-oxo-4,5-dihydro-3H-isothiazol-1-yl)furan-2-carboxamide] had a CC50 at 144 h in series [1] above 100 µM. The IC50 with HBeAg (setting [2]) was found to be 3.14 µM; with HBsAg (setting [3]), 3.65 µM.

`O=C(N[C@H]1CC2(C1)C[C@H](c1nc3cc(Cl)ccc3o1)C2)c1ccc(S(=O)(=O)NC(=O)C2CCOC2)o1` (stereo partly drawn) [Example 77, (Sa)—N-[6-(5-chloro-1,3-benzoxazol-2-yl)spiro[3.3]heptan-2-yl]-5-(tetrahydrofuran-3-carbonylsulfamoyl)furan-2-carboxamide, or (Ra)—N-[6-(5-chloro-1,3-benzoxazol-2-yl)spiro[3.3]heptan-2-yl]-5-(tetrahydrofuran-3-carbonylsulfamoyl)furan-2-carboxamide] showed a CC50 at 144 h in series [1] above 100 µM. The IC50 in the series with HBeAg (setting [2]) came to 0.563 µM; with HBsAg (setting [3]) it was 1.16 µM.

On to `O=C(NC1CC2(C1)CC(c1nc3cc(Cl)ccc3o1)C2)c1ccc(C(F)(F)F)o1` (stereo not drawn) [Example 1, N-[6-(5-chloro-1,3-benzoxazol-2-yl)spiro[3.3]heptan-2-yl]-5-(trifluoromethyl)furan-2-carboxamide], for which the CC50 at 144 h in series [1] is 96.8 µM. Besides, the IC50 came to 2.29 µM with HBeAg (setting [2]) and 3.63 µM with HBsAg (setting [3]).

Compound `O=C(NC1CC2(C1)CC(c1nc3ccc(F)cc3o1)C2)c1ccc(C(F)(F)F)o1` (stereo not drawn) [Example 47, N-[6-(6-fluoro-1,3-benzoxazol-2-yl)spiro[3.3]heptan-2-yl]-5-(trifluoromethyl)furan-2-carboxamide] yielded a CC50 at 144 h in series [1] above 100 µM. For the same compound, the figures for the IC50 in the series on HBeAg (setting [2]) and in the series with HBsAg (setting [3]) were 10.6 µM and 9.59 µM, respectively.

Compound `CC(C)C[S+]([O-])c1ccc(C(=O)NC2CC3(C2)CC(c2nc4cc(Cl)ccc4o2)C3)o1` (stereo not drawn) [Example 21, N-[6-(5-chloro-1,3-benzoxazol-2-yl)spiro[3.3]heptan-2-yl]-5-isobutylsulfinyl-furan-2-carboxamide] gave a CC50 at 144 h in series [1] of 92.4 µM. In addition, the figures for the IC50 with HBeAg (setting [2]) and in the series with HBsAg (setting [3]) were 0.314 µM and 0.372 µM, respectively.

For the compound `CCS(=O)(=O)c1oc(C(=O)NC2CC3(C2)CC(c2nc4cc(Cl)ccc4o2)C3)cc1Br` (stereo not drawn) [Example 36, 4-bromo-N-[6-(5-chloro-1,3-benzoxazol-2-yl)spiro[3.3]heptan-2-yl]-5-ethylsulfonyl-furan-2-carboxamide], the CC50 at 144 h in series [1] was above 100 µM. Moreover, the figures for the IC50 in the series on HBeAg (setting [2]) and with HBsAg (setting [3]) were 0.815 µM and 0.885 µM, respectively.

Compound `O=C(NC1CC2(C1)CC(c1nc3cc(Cl)ccc3o1)C2)c1ccc([S+]([O-])CC2CC2)o1` (single isomer, unassigned) [Example 19-a, N-[6-(5-chloro-1,3-benzoxazol-2-yl)spiro[3.3]heptan-2-yl]-5-(cyclopropylmethylsulfinyl)furan-2-carboxamide] registered a cytotoxic concentration (CC50) at 144 h in series [1] above 10 µM. In addition, the results for the IC50 in the series on HBeAg (setting [4]) and with HBsAg (setting [5]) were 0.067 µM and 0.088 µM, respectively.

`O=C(N[C@H]1CC2(C1)C[C@H](c1nc3cc(Cl)ccc3o1)C2)c1ccc(S(=O)(=O)NC(=O)C2CCC2)o1` (single isomer, unassigned) [Example 72, (Sa)—N-[6-(5-chloro-1,3-benzoxazol-2-yl)spiro[3.3]heptan-2-yl]-5-(cyclobutanecarbonylsulfamoyl)furan-2-carboxamide, or (Ra)—N-[6-(5-chloro-1,3-benzoxazol-2-yl)spiro[3.3]heptan-2-yl]-5-(cyclobutanecarbonylsulfamoyl)furan-2-carboxamide] returned a CC50 at 144 h in series [1] above 100 µM. Moreover, the IC50 in the series with HBeAg (setting [2]) was 0.386 µM; in the series on HBsAg (setting [3]), 0.314 µM.

The compound `CCS(=N)(=O)Cc1ccc(C(=O)NC2CC3(C2)CC(c2nc4cc(Cl)ccc4o2)C3)o1` (stereo not drawn) [Example 58, N-[6-(5-chloro-1,3-benzoxazol-2-yl)spiro[3.3]heptan-2-yl]-5-[(ethylsulfonimidoyl)methyl]furan-2-carboxamide] yielded a CC50 at 144 h in series [1] above 100 µM. Moreover, the IC50 in the series with HBeAg (setting [2]) amounted to 5.88 µM; in the series on HBsAg (setting [3]), 8.79 µM.

Turning to `CC(C)S(=N)(=O)Cc1ccc(C(=O)NC2CC3(C2)CC(c2nc4cc(Cl)ccc4o2)C3)o1` (stereo not drawn) [Example 59, N-[6-(5-chloro-1,3-benzoxazol-2-yl)spiro[3.3]heptan-2-yl]-5-[(isopropylsulfonimidoyl)methyl]furan-2-carboxamide], in series [1], the CC50 at 144 h is above 100 µM. Also, the IC50 was 2.6 µM with HBeAg (setting [2]) and 3.81 µM in the series with HBsAg (setting [3]).

With `O=C(NC1CC2(C1)CC(c1nc3cc(Cl)ccc3o1)C2)c1ccc(S(=O)(=O)C(F)(F)F)o1` (stereo not drawn) [Example 43, N-[6-(5-chloro-1,3-benzoxazol-2-yl)spiro[3.3]heptan-2-yl]-5-(trifluoromethylsulfonyl)furan-2-carboxamide], in series [1], the CC50 at 144 h was above 100 µM. Further, the IC50 with HBeAg (setting [2]) worked out at 0.839 µM; in the series on HBsAg (setting [3]) it was 1.14 µM.

As for `O=C(NC1CC2(C1)CC(c1nc3cc(Cl)ccc3o1)C2)c1ccc(S(=O)(=O)C2CC2)o1` (stereo not drawn) [Example 17, N-[6-(5-chloro-1,3-benzoxazol-2-yl)spiro[3.3]heptan-2-yl]-5-cyclopropylsulfonyl-furan-2-carboxamide], it took 89.9 µM to reach half-maximal cytotoxicity in series [1] (CC50 at 144 h). Besides, the results for the IC50 in the series on HBeAg (setting [2]) and in the series on HBsAg (setting [3]) were 0.177 µM and 0.275 µM, respectively.

In series [1], `CS(=O)(=O)CCc1ccc(C(=O)NC2CC3(C2)CC(c2nc4cc(Cl)ccc4o2)C3)o1` (stereo not drawn) [Example 32, N-[6-(5-chloro-1,3-benzoxazol-2-yl)spiro[3.3]heptan-2-yl]-5-(2-methylsulfonylethyl)furan-2-carboxamide] returned a CC50 at 144 h above 100 µM. The figures for the IC50 in the series on HBeAg (setting [2]) and with HBsAg (setting [3]) were 3.15 µM and 4.94 µM, respectively.

`CC(C)(C)S(=O)(=O)c1ccc(C(=O)NC2CC3(C2)CC(c2nc4cc(Cl)ccc4o2)C3)o1` (stereo not drawn) [Example 39, 5-tert-butylsulfonyl-N-[6-(5-chloro-1,3-benzoxazol-2-yl)spiro[3.3]heptan-2-yl]furan-2-carboxamide] came in with a CC50 at 144 h in series [1] above 10 µM. Further, the IC50 was 0.603 µM in the series on HBeAg (setting [2]) and 0.96 µM in the series on HBsAg (setting [3]).

Compound `CC(C)CS(=N)(=O)c1ccc(C(=O)NC2CC3(C2)CC(c2nc4cc(Cl)ccc4o2)C3)o1` (stereo not drawn) [Example 55, N-[6-(5-chloro-1,3-benzoxazol-2-yl)spiro[3.3]heptan-2-yl]-5-(isobutylsulfonimidoyl)furan-2-carboxamide] yielded a CC50 at 144 h in series [1] of 83.3 µM. The IC50 in the series on HBeAg (setting [2]) was determined as 0.988 µM; in the series on HBsAg (setting [3]) it was 0.802 µM.

For the compound `O=C(NC1CC2(C1)CC(c1nc3cc(Cl)ccc3o1)C2)c1ccc(S(=O)(=O)C2COC2)o1` (stereo not drawn) [Example 18, N-[6-(5-chloro-1,3-benzoxazol-2-yl)spiro[3.3]heptan-2-yl]-5-(oxetan-3-ylsulfonyl)furan-2-carboxamide], in series [1], it took 72.1 µM to reach half-maximal cytotoxicity (CC50 at 144 h). Also, the figures for the half-inhibitory concentration (IC50) in the series with HBeAg (setting [2]) and in the series with HBsAg (setting [3]) were 1.81 µM and 3.27 µM, respectively.

In series [1], `O=C(NC1CC2(C1)CC(c1nc3cc(Cl)ccc3o1)C2)c1cc(Br)co1` (stereo not drawn) [Example 4, 4-bromo-N-[6-(5-chloro-1,3-benzoxazol-2-yl)spiro[3.3]heptan-2-yl]furan-2-carboxamide] showed a CC50 at 144 h of 56 µM. Further, the IC50 turned out to be 2.94 µM in the series on HBeAg (setting [2]) and 5.57 µM with HBsAg (setting [3]).

Compound `N=S(=O)(c1ccc(C(=O)NC2CC3(C2)CC(c2nc4cc(Cl)ccc4o2)C3)o1)C1CC1` (stereo not drawn) [Example 53, N-[6-(5-chloro-1,3-benzoxazol-2-yl)spiro[3.3]heptan-2-yl]-5-(cyclopropylsulfonimidoyl)furan-2-carboxamide] displayed a CC50 at 144 h in series [1] above 10 µM. Moreover, the IC50 was 0.394 µM in the series with HBeAg (setting [2]) and 0.494 µM in the series on HBsAg (setting [3]).

In the case of `O=C(NC1CC2(C1)CC(c1nc3cc(Cl)ccc3o1)C2)c1ccc(C(=O)C2CC2)o1` (stereo not drawn) [Example 10, N-[6-(5-chloro-1,3-benzoxazol-2-yl)spiro[3.3]heptan-2-yl]-5-(cyclopropanecarbonyl)furan-2-carboxamide], the CC50 at 144 h in series [1] amounted to 96.1 µM. The IC50 in the series with HBeAg (setting [2]) was 2.94 µM; in the series with HBsAg (setting [3]), 3.35 µM.

Values taken from patent US20230286969A1, “AROMATIC SPIRO RING AMIDE DERIVATIVES FOR THE TREATMENT AND PROPHYLAXIS OF HEPATITIS B VIRUS INFECTION” (Hoffmann-La Roche Inc., priority 2020, published 2023).
